Like-named read-outs stand apart in the source and are kept apart here. Marks after values point to notes of the source that are not given here. Each block holds one compound with its values, some of them ahead of it.
Key:
[1] = cited from earlier work
[2] = cited from earlier work; remark: listed apart in the source
[3] = 90 min after injection, 12 MBq i.v., anesthetized; cited from earlier work
[4] = design: method as in PMID 4743583; conditions: i.v., estimated from ^67Ga-citrate data, uniform distribution of radioactivity assumed; cited from earlier work
[5] = Radiation dose of i.v. ^68Ga-citrate estimated from ^67Ga-citrate data (literature); design: species or system human; conditions: converted from 0.052 rem/mCi assuming only gamma radiation
[6] = ref Tang 2003, Pauleit 2003 [22], [23]

Compound: N[C@@H](Cc1cc(O)c(O)cc1[18F])C(=O)O [6-^18 F-Fluoro-L-Dopa]
Human derived ED ([1]; ref Harvey 1985, Brown 1998 [20], [21]): 0.0199 mSv/MBq
Animal derived ED ([2]; calculated with biological risk weight factors of ICRP 30, ref Harvey 1985, Brown 1998 [20], [21]): 0.0539^b mSv/MBq

Compound: [11CH3]Nc1ccc(-c2nc3ccc(O)cc3s2)cc1 [^11C-6-OH-BTA-1]
Human derived ED ([1]; ref Parsey 2005, Scheinin 2007 [17], [18]): 0.0045 mSv/MBq
Animal derived ED ([2]; males only, ref Parsey 2005, Scheinin 2007 [17], [18]): 0.0065^a mSv/MBq

Compound: C[N+](C)([11CH3])CCO [^11C-Choline]
Human derived ED ([1]; ref Tolvanen 2010 [24]): 0.0044 mSv/MBq
Animal derived ED ([2]; ref Tolvanen 2010 [24]): 0.0028 mSv/MBq

Compound: N[C@@H](Cc1ccc(OCC[18F])cc1)C(=O)O [^18 F-FET, O-(2-[^18F]fluoroethyl)-L-tyrosine]
Human derived ED [1, 6]: 0.0165 mSv/MBq
Animal derived ED [2, 6]: 0.0186 mSv/MBq

Compound: [68Ga+3].[Cl-].[Cl-].[Cl-] [^68Ga-chloride]
SUV, blood [3]: 2.7 ± 0.3
SUV, liver [3]: 5.9 ± 3.3
SUV, lung [3]: 1.9 ± 0.8
SUV, muscle [3]: 0.2 ± 0.03
SUV, skin [3]: 0.5 ± 0.1

Estimated absorbed dose for total body, converted [5]: 0.014 mSv/MBq
Compound: O=C([O-])CC(O)(CC(=O)[O-])C(=O)[O-].[68Ga+3] [^68Ga-citrate]
Estimated absorbed dose for total body [4]: 0.052 rads/mCi

Compound: carbon-11-methoxyprogabidic acid [^11C-MPGA]
Human derived ED ([1]; ref Santens 1998 [19]): 0.0053 mSv/MBq
Animal derived ED ([2]; ref Santens 1998 [19]): 0.0048 mSv/MBq
